The values below come from US8518932B2, “Oxime azetidine derivatives as sphingosine 1-phosphate (S1P) receptor modulators” (Allergan, Inc., priority 2010, dated 2013).

The structures appear in SMILES notation.

For this assay, the target named is T1, human S1P1 receptor (Homo sapiens, UniProt P21453).
T1 construct: expressed in transfected cells; membranes used
T1 sequence (P21453 whole entry): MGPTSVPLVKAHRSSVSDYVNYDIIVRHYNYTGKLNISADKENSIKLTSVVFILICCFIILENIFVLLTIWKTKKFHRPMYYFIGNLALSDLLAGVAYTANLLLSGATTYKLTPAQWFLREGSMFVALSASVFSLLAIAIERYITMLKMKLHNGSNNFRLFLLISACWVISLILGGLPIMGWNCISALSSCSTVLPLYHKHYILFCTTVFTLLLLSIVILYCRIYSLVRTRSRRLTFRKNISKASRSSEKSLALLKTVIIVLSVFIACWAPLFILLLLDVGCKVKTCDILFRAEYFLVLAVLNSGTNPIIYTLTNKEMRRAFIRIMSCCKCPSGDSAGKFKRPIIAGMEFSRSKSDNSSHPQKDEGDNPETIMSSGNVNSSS
The assay can be described thus: GTP γ35S binding assay for S1P1 activity. It counts as biochemical. The conditions noted are these: membranes of cells stably expressing the S1P1 receptor, test compounds 0.08 to 5,000 nM, 30 min at 25° C. The procedure:
Compounds were synthesized and tested for S1P1 activity using the GTP γ^35S binding assay. These compounds may be assessed for their ability to activate or block activation of the human S1P1 receptor in cells stably expressing the S1P1 receptor.
GTP γ^35S binding was measured in the medium containing (mM) HEPES 25, pH 7.4, MgCl2 10, NaCl 100, dithitothreitol 0.5, digitonin 0.003%, 0.2 nM GTP γ^35S, and 5 μg membrane protein in a volume of 150 μl. Test compounds were included in the concentration range from 0.08 to 5,000 nM unless indicated otherwise. Membranes were incubated with 100 μM 5′-adenylylimmidodiphosphate for 30 min, and subsequently with 10 μM GDP for 10 min on ice. Drug solutions and membrane were mixed, and then reactions were initiated by adding GTP γ^35S and continued for 30 min at 25° C. Reaction mixtures were filtered over Whatman GF/B filters under vacuum, and washed three times with 3 mL of ice-cold buffer (HEPES 25, pH7.4, MgCl2 10 and NaCl 100). Filters were dried and mixed with scintillant, and counted for ^35S activity using a β-counter. Agonist-induced GTP γ^35S binding was obtained by subtracting that in the absence of agonist. Binding data were analyzed using a non-linear regression method. In case of antagonist assay, the reaction mixture contained 10 nM S1P in the presence of test antagonist at concentrations ranging from 0.08 to 5000 nM.
In general terms: Binding of GTPγS marks nucleotide exchange on a G protein.
In general, EC50 refers to the midpoint of the concentration-response curve. A lower EC50 goes with greater potency. For the compound `C/C(=N\OCc1ccc(CN2CC(C(=O)O)C2)cc1)C(Cc1ccc(C)c(C)c1)c1cc(F)cc(F)c1` (centres unmarked) [Compound 4, 1-{4-[({[(1E)-2-(3,5-difluorophenyl)-3-(3,4-dimethylphenyl)-1-methylpropylidene]amino}oxy)methyl]benzyl}azetidine-3-carboxylic acid], it took 17.5 nM to reach a half-maximal effect (EC50).

The compound `C/C(=N\OCC(Cc1ccc(C)c(C)c1)c1cccc(C)c1)c1ccc(CN2CC(C(=O)O)C2)cc1` (centres unmarked) [Compound 1, 1-(4-{(1E)-N-[2-(3-methylphenyl)-3-(3,4-dimethylphenyl)propoxy]ethanimidoyl}benzyl)azetidine-3-carboxylic acid] gave an EC50 of 16.5 nM.

`C/C(=N\OCC(Oc1ccc(C)c(C)c1)c1cccc(Cl)c1)c1ccc(CN2CC(C(=O)O)C2)cc1` (centres unmarked) [Compound 8, 1-(4-{(1E)-N-[2-(3-chlorophenyl)-2-(3,4-dimethylphenoxy)ethoxy]ethanimidoyl}benzyl)azetidine-3-carboxylic acid] gave an EC50 of 163 nM.

For the compound `C/C(=N\OCC(Cc1ccc(C)c(C)c1)c1cccc(Cl)c1)c1ccc(CN2CC(C(=O)O)C2)cc1` (centres unmarked) [Compound 2, 1-(4-{(1E)-N-[2-(3-chlorophenyl)-3-(3,4-dimethylphenyl)propoxy]ethanimidoyl}benzyl)azetidine-3-carboxylic acid], the EC50 turned out to be 9.05 nM.

On to `C/C(=N\OCc1ccc(CN2CC(C(=O)O)C2)cc1)C(Cc1ccc(C)c(C)c1)c1cccc(Cl)c1` (centres unmarked) [Compound 3, 1-{4-[({[(1E)-2-(3-chlorophenyl)-3-(3,4-dimethylphenyl)-1-methylpropylidene]amino}oxy)methyl]benzyl}azetidine-3-carboxylic acid], for which the EC50 amounted to 230 nM. This EC50 is about 25-fold higher than that of the compound before.
